PubChem BioAssay (NCI)
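1) Cells in 96-well plates. 2) Compound, 48 h, 5 concentrations. 3) Linear interpolation between surrounding doses. 4) Unreached endpoint = highest concentration. GI50 = concentration required for 50% inhibition of growth. TGI is the concentration that stops growth completely.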

What was measured:
Experiment in all cases: NCI tumour cell line growth inhibition, 48 h
COLO 205 colon = tested on: COLO 205 colon
DMS 114 small cell lung = tested on: DMS 114 small cell lung
HCC-2998 colon = tested on: HCC-2998 colon
IGROV1 ovarian = tested on: IGROV1 ovarian
K-562 leukemia = tested on: K-562 leukemia
KM20L2 colon = tested on: KM20L2 colon
LXFL 529 NSCLC = tested on: LXFL 529 NSCLC
M19-MEL melanoma = tested on: M19-MEL melanoma
SF-268 CNS = tested on: SF-268 CNS
SNB-78 CNS = tested on: SNB-78 CNS
TK-10 renal = tested on: TK-10 renal
HOP-18 NSCLC = tested on: HOP-18 NSCLC
T-47D breast = tested on: T-47D breast

SMILES	TGI (COLO 205 colon) [µM]	TGI (DMS 114 small cell lung) [µM]	TGI (HCC-2998 colon) [µM]	TGI (IGROV1 ovarian) [µM]	TGI (K-562 leukemia) [µM]	TGI (KM20L2 colon) [µM]	TGI (LXFL 529 NSCLC) [µM]	TGI (M19-MEL melanoma) [µM]	TGI (SF-268 CNS) [µM]	TGI (SNB-78 CNS) [µM]	TGI (TK-10 renal) [µM]	TGI (HOP-18 NSCLC) [µM]	TGI (T-47D breast) [µM]	GI50 (COLO 205 colon) [µM]	GI50 (HCC-2998 colon) [µM]	GI50 (IGROV1 ovarian) [µM]	GI50 (K-562 leukemia) [µM]	GI50 (SF-268 CNS) [µM]	GI50 (T-47D breast) [µM]	GI50 (TK-10 renal) [µM]
O=C1C(c2ccccc2)=C(c2ccccc2)C(c2ccc(CCCCCCc3ccc(C4=C(c5ccccc5)C(=O)C(c5ccccc5)=C4c4ccccc4)cc3)cc2)=C1c1ccccc1	> 100	> 100	> 100	> 100	> 100	> 100	> 100	> 100	> 100	> 100	> 100									
COc1cc(Br)c(CC2=NCCc3cc(OC)c(OC)cc32)cc1OC	> 100	68.1	43.4	> 100	> 100	> 100	> 100	> 100	> 100		> 100	> 100								
COc1ccccc1/C=C\c1cc(OC)c(OC)c(OC)c1	16.9	> 100		> 100	> 100		> 100	> 100		> 100	> 100	> 100								
O=C1c2cc(CCl)sc2C(=O)c2ccsc21	2.68	0.298	3.04	2.83	0.478	2.84	0.609		0.676	0.746	3.41	0.797	0.562							
C[C@@H]1CC[C@@]2(OC1)O[C@H]1C[C@H]3[C@@H]4CC=C5C[C@@H](O[C@@H]6O[C@H](CO)[C@@H](O[C@@H]7O[C@@H](CO)[C@H](O)[C@H]7O)[C@H](O)[C@H]6O[C@@H]6O[C@@H](C)[C@H](O)[C@@H](O)[C@H]6O)CC[C@]5(C)[C@H]4CC[C@]3(C)[C@H]1[C@@H]2C	2.17		3.1	2.38	2.64				2.47		2.19		2.73	0.966	1.71	1.16	0.873	1.21	1.39	
CCOC(=O)C(C[Si](C)(C)C)P(=O)(OCC)OCC (stereo not drawn)	> 100	> 100	> 100	> 100	> 100	> 100	> 100	> 100	> 100	> 100	> 100									
Oc1c(CN2CCCC2)cc(COCc2ccccc2)c2cccnc12	26.6		16.5	13.8	20.7				18.5		22.3		15.4	10.4	3.72	3.54	2.62	1.99	2.97	1.84
O=C1/C(=C/c2cccs2)CCC/C1=C\c1cccs1	> 100		> 100	98.5	> 100				> 100		> 71.8		> 72.8	> 100	> 100	30.3	> 100	33.5	2.13	25.9
C[C@H]1[C@@H](OCC(CO[C@H]2O[C@@H]3O[C@@]4(C)CC[C@H]5[C@H](C)CC[C@@H]([C@H]2C)[C@@]35OO4)=NOCC(=O)O)OC2O[C@@]3(C)CC[C@H]4[C@H](C)CC[C@@H]1[C@@]24OO3 (stereo partly drawn)	0.422		20.8	21.3	17.5				0.889		4.57		0.331	< 0.0195	1.28	0.0673	< 0.01	< 0.0231	< 0.01	0.0408
CC(C)(C)CC(C)(C)c1ccc(OCCOCCSC(=N)N)cc1	3.12		2.56	4.81	3.58				12.5		5.19		3.54	1.65	1.25	2.3	1.51	3.58	1.68	2.47
Cn1c(=O)c2[nH]c(COc3ccc(C(C)(C)C)cc3)nc2n(C)c1=O	> 100		> 100	44.5	> 100				> 100		99.6		> 100	50.3	16.8	14.1	3.28	14.1	11.9	23.9
CC#CC(=O)N1CCC[C@H]1c1nc(-c2ccc(C(=O)Nc3ccccn3)cc2)c2c(N)nccn12	> 100		> 100	> 83.8	> 100				> 100		> 100		> 100	85.4	> 100	18	> 88.2	52.7	10.1	21.1
COc1ccccc1-n1c(SCc2cc(OC)c(OC)c(OC)c2)nc2ccc(Cl)cc2c1=O	> 100		> 100	> 100	> 100				> 100		> 100		> 100	3.03	7.8	10.9	1.02	23.1	4.95	48.6
C=C1C(C)C2C(Cc3ccccc3)NC(=O)C23C(OC(C)=O)/C=C/C(C)(O)CC(C)C/C=C/C3C1O (stereo not drawn)	> 100	> 100	> 100	48.2	> 100	> 100		> 100	41.2	1.3	> 54.5	0.814	> 100							
NC(CSC(c1ccccc1)(c1ccccc1)c1ccc2ccccc2c1)C(=O)O (stereo not drawn)	0.875		0.496	21.6	> 100				13.7		23.6		18	0.0816	0.0374	0.124	0.0461	0.0517	0.132	0.524
Cc1ccc(NC(=O)C(=O)Cc2nc3ccccc3o2)c(C)c1	> 100	> 100	> 100	> 100	> 100	> 100	> 100	> 100	> 100	> 100	> 100									
CCC1(CN(C)C)CC/C(=C\c2ccc3c(c2)OCO3)C1=O (stereo not drawn)	> 100		> 100	> 100	> 100	> 100	> 100	> 100	> 100	> 100	> 100	> 100								
